Reference: patent US20210358575A1, “A METHOD FOR DETERMINING THE EFFICACY OF TREATMENT WITH A COMBINATION OF DRUGS IN A SUBJECT DIAGNOSED WITH A DISEASE AND A METHOD FOR CLASSIFYING THE UTILITY OF DRUG COMBINATIONS IN TREATMENT OF SAID SUBJECT” (priority 2018, published 2021)
One block for each compound: values may come before it.

What was measured:
[1] = test system: bone marrow samples of acute lymphoid leukemia (ALL) patients; assay: Ex vivo test of single drugs, EC50 compared with population distribution, acute lymphoid leukemia samples; format: cell-based, human; details: ALL second line patient VIVIA-PMALL04001, 48 h
Protocol: Bone marrow samples were obtained from three adult patients diagnosed with MM (VIVIA-PMMM010431, VIVIA-PMMM060111 and VIVIA-PMMM130061) and three adult patients diagnosed with ALL (VIVIA-PMALL07002, VIVIA-PMALL04001 and VIVIA-PMALL09001). Following the same experimental design as described for examples 1 and 3, said bone marrow samples were incubated for 48 h in well plates containing the single drugs shown in FIGS. 21 to 26. After the measurement of pathological populations by flow cytometry, pharmacological response parameters were estimated using population pharmacodynamic models. The most representative parameter of drug potency, the EC50, was used for a comparative analysis of the results provided by said bone marrow samples with respect to the statistical distribution of the same parameter observed in a population of samples and stored in the database. Such populations varied in size depending on the drug, being always over one hundred individuals in the case of MM and between 15 and 21 individuals in the case of ALL.

[2] = test system: live pathological cells (LPC) in bone marrow samples of AML patients; assay: PharmaFlow PM test: ex vivo drug sensitivity of whole bone marrow samples, population pharmacodynamic models; format: cell-based, human; details: typical population value; for EC50: Homo sapiens, AML bone marrow samples, 48 h incubation; for EMAX (maximum fractional decrease in LPC): set to 1 in the model; for EMAX (maximum fractional decrease in LPC) / γ (steepness of LPC vs concentration curve): 48 h
Protocol: Ex vivo drug sensitivity analysis was made using the PharmaFlow platform (previously termed ExviTech®) maintaining the bone marrow (BM) microenvironment. A minimum BM sample volume between one and two mL was collected by aspiration at AML diagnosis, before starting induction chemotherapy, and was processed by an automated method 24 hours after extraction. Samples were incubated with CYT, IDA and/or CYT+IDA for 48 hours. A more detailed description of the procedure has been published elsewhere (Bennett, et al 2014).
Evaluation of drug response was done by counting the number of live pathological cells (LPC) remaining after incubation at increasing drug concentrations (Upton and Mould 2014). Dying cells (apoptosis) were excluded using Annexin V-FITC. Pharmacological responses were analyzed using PD population-based models (Upton and Mould 2014) which essentially perform the fitting of the dependent variable (natural log of LPC) in a non-linear mixed-effects model to derive typical population values (fixed effects) and the magnitude of inter-patient and residual variability (random effects).
Model development was performed with the first-order conditional estimation method using interaction option with the software NONMEM (v7.2) (Beal, et al 1989-2001), according to the following equation: […]
Where LPC0 (LCTi0) parameter refers to the number of LPC (LCTi) after incubation in the absence of drug, Emax represents the maximum fractional decrease in LPC that the drug can elicit, EC50, is the drug concentration exerting half of Emax, and γ is the parameter governing the steepness of the LPC vs drug concentration (C) curve. For interaction analysis a Surface Interaction model (Greco, et al 1995) was used to estimate the degree of synergy, referred as a parameter, between both drugs. Interpatient variability (IPV) associated to all parameters was described by means of an exponential model of the components of variance. An additive error structure was used for the residual variability. Population PD models were built with bone marrow (BM) samples from 473 patients that were incubated with CYT, 456 with IDA and 443 with CYT+IDA. Bayesian estimation methods were then used to retrieve individual patient parameters based on their available exposure-response measurements in conjunction with the PD population parameters.
Individual response profiles normalized with respect to LPC0 (LCTi0), were integrated between the concentration points corresponding to the 20th and 80th percentiles of the distribution of estimated individual EC50 values, to obtain the values of the areas under the curves (AUCs) that were used as a descriptor of the ex vivo drug effect (i.e. the higher the AUC, the lower the cytotoxic effect (efficacy or potency) of the drug.

[3] = test system: first-line AML patients treated with CYT+IDA; assay: Validation of PM Test score vs clinical response in 112 first-line AML samples; format: in vivo, human; details: 112 AML patients treated with CYT+IDA
Excerpt: The Precision Medicine (PM) Test as described ranks treatments by a score that estimates the activity of each treatment across a population of patient samples. Higher score represents more ex vivo sensitivity to treatment, while lower score represents less ex vivo sensitivity to treatment, i.e. more ex vivo resistance. A particular format of the results of the PM Test is shown in FIG. 19, panels A and B, wherein the ranking of treatments by activity score from 100%=best to 0%=worst is shown (score may be represented graphically using a colour/tone gradient or categorisation). The following 3 categories are identified:
To validate the predictive power of these PM Test score results, the set of 123 samples treated homogeneously with CYT+IDA that were used in the correlation study of Example 1 were employed. Only 112 samples were used for validation. To evaluate the predictive power of the PM Test score, in the format shown in FIG. 19, panel A referring to a sensitive patient we can only use patients predicted to be sensitive or resistant. Treatments having intermediate scores are not considered sufficiently strong to predict any response. In the case of intermediate scores, other factors such as pharmacokinetics may be more important than the score. On the other hand, extreme scores are more likely to prevail over other factors such as pharmacokinetics.
The set of data of 112 patients treated with CYT+IDA represents a 1st line treatment of AML with a 72% response rate. This means that 72% of these 112 patients achieved Complete Remission (CR) clinically. The majority of patients were sensitive, with fewer resistant patients. Thus, the statistics are improved by calculating the % of cases in which the PM Test score predicted patients to be sensitive to the ex vivo treatment. This means selecting only the treatments to which the patient is expected to be very sensitive, with scores between 80-100%. The % of accurate prediction of sensitive (responsive) patients is referred as the Negative Predicted Value (NPV).
Samples whose score are between this variable threshold and 100% are analysed and predicted as sensitive because they have the top score. The results are shown for the monotherapies CYT and IDA, and for the combination treatment. Focus was placed on the combination treatment CYT+IDA that was administered to patients. Columns 8 to 10 of Table 4 show the results for the combined treatment CYT+IDA for different thresholds. The lowest threshold 55%, which means between 55 and 100%, identifies 93 out of the 112 samples, that would be predicted as sensitive. […] Thus, the prediction accuracy or NPV is 77/93=82.8%. As the threshold is increased (descending the 1st column of Table 4), the range of scores included is narrowed because the maximum is always 100%. Consequently, as the threshold is increased, the total number of samples included diminishes, reaching 0 samples at 100% (100-100%) and 18 samples at 95%. The decrease can be observed in the number of either sensitive or resistant samples (descending columns 8 and 9 of Table 4). […] Thus, the higher the score, the better the prediction (moreover, the intermediate sensitivity values provide less accurate prediction than the extreme values).

EC50 [2]: 0.087 µM
SMILES: CC(=O)[C@]1(O)Cc2c(O)c3c(c(O)c2[C@@H](O[C@H]2C[C@H](N)[C@H](O)[C@H](C)O2)C1)C(=O)c1ccccc1C3=O [Idarubicin, idarubicin]
ex vivo activity [1]: very potent activity
EMAX (maximum fractional decrease in LPC) [2]: 1
γ (steepness of LPC vs concentration curve) [2]: 1.14
% Sens. (percentage of patients sensitive to therapy, NPV) ([3]; PM Test score ≥55): 84.8%
Res. (number of patients resistant to therapy) ([3]; PM Test score ≥55): 12
Sens. (number of patients sensitive to therapy) ([3]; PM Test score ≥55): 67
% Sens. (percentage of patients sensitive to therapy, NPV) ([3]; PM Test score ≥60): 84.9%
Res. (number of patients resistant to therapy) ([3]; PM Test score ≥60): 11
Sens. (number of patients sensitive to therapy) ([3]; PM Test score ≥60): 62
% Sens. (percentage of patients sensitive to therapy, NPV) ([3]; PM Test score ≥65): 87.0%
Res. (number of patients resistant to therapy) ([3]; PM Test score ≥65): 9
Sens. (number of patients sensitive to therapy) ([3]; PM Test score ≥65): 60
% Sens. (percentage of patients sensitive to therapy, NPV) ([3]; PM Test score ≥70): 86.6%
Res. (number of patients resistant to therapy) ([3]; PM Test score ≥70): 9
Sens. (number of patients sensitive to therapy) ([3]; PM Test score ≥70): 58
% Sens. (percentage of patients sensitive to therapy, NPV) ([3]; PM Test score ≥75): 85.2%
Res. (number of patients resistant to therapy) ([3]; PM Test score ≥75): 9
Sens. (number of patients sensitive to therapy) ([3]; PM Test score ≥75): 52
% Sens. (percentage of patients sensitive to therapy, NPV) ([3]; PM Test score ≥80): 85.7%
Res. (number of patients resistant to therapy) ([3]; PM Test score ≥80): 8
Sens. (number of patients sensitive to therapy) ([3]; PM Test score ≥80): 48
% Sens. (percentage of patients sensitive to therapy, NPV) ([3]; PM Test score ≥85): 86.5%
Res. (number of patients resistant to therapy) ([3]; PM Test score ≥85): 7
Sens. (number of patients sensitive to therapy) ([3]; PM Test score ≥85): 45
% Sens. (percentage of patients sensitive to therapy, NPV) ([3]; PM Test score ≥90): 88.4%
Res. (number of patients resistant to therapy) ([3]; PM Test score ≥90): 5
Sens. (number of patients sensitive to therapy) ([3]; PM Test score ≥90): 38
% Sens. (percentage of patients sensitive to therapy, NPV) ([3]; PM Test score ≥95): 96.8%
Res. (number of patients resistant to therapy) ([3]; PM Test score ≥95): 1
Sens. (number of patients sensitive to therapy) ([3]; PM Test score ≥95): 30
Res. (number of patients resistant to therapy) ([3]; PM Test score ≥100): 0
Sens. (number of patients sensitive to therapy) ([3]; PM Test score ≥100): 0

EC50 [2]: 6.94 µM
SMILES: Nc1ccn([C@@H]2O[C@H](CO)[C@@H](O)[C@@H]2O)c(=O)n1 [Cytarabine, cytarabine]
ex vivo activity [1]: intermediate-low activity
EMAX (maximum fractional decrease in LPC) [2]: 1
γ (steepness of LPC vs concentration curve) [2]: 0.684
% Sens. (percentage of patients sensitive to therapy, NPV) ([3]; PM Test score ≥55): 84.8%
Res. (number of patients resistant to therapy) ([3]; PM Test score ≥55): 14
Sens. (number of patients sensitive to therapy) ([3]; PM Test score ≥55): 78
% Sens. (percentage of patients sensitive to therapy, NPV) ([3]; PM Test score ≥60): 85.7%
Res. (number of patients resistant to therapy) ([3]; PM Test score ≥60): 13
Sens. (number of patients sensitive to therapy) ([3]; PM Test score ≥60): 78
% Sens. (percentage of patients sensitive to therapy, NPV) ([3]; PM Test score ≥65): 85.4%
Res. (number of patients resistant to therapy) ([3]; PM Test score ≥65): 13
Sens. (number of patients sensitive to therapy) ([3]; PM Test score ≥65): 76
% Sens. (percentage of patients sensitive to therapy, NPV) ([3]; PM Test score ≥70): 85.1%
Res. (number of patients resistant to therapy) ([3]; PM Test score ≥70): 13
Sens. (number of patients sensitive to therapy) ([3]; PM Test score ≥70): 74
% Sens. (percentage of patients sensitive to therapy, NPV) ([3]; PM Test score ≥75): 86.1%
Res. (number of patients resistant to therapy) ([3]; PM Test score ≥75): 11
Sens. (number of patients sensitive to therapy) ([3]; PM Test score ≥75): 68
% Sens. (percentage of patients sensitive to therapy, NPV) ([3]; PM Test score ≥80): 86.1%
Res. (number of patients resistant to therapy) ([3]; PM Test score ≥80): 10
Sens. (number of patients sensitive to therapy) ([3]; PM Test score ≥80): 62
% Sens. (percentage of patients sensitive to therapy, NPV) ([3]; PM Test score ≥85): 87.1%
Res. (number of patients resistant to therapy) ([3]; PM Test score ≥85): 8
Sens. (number of patients sensitive to therapy) ([3]; PM Test score ≥85): 54
% Sens. (percentage of patients sensitive to therapy, NPV) ([3]; PM Test score ≥90): 85.2%
Res. (number of patients resistant to therapy) ([3]; PM Test score ≥90): 8
Sens. (number of patients sensitive to therapy) ([3]; PM Test score ≥90): 46
% Sens. (percentage of patients sensitive to therapy, NPV) ([3]; PM Test score ≥95): 83.7%
Res. (number of patients resistant to therapy) ([3]; PM Test score ≥95): 7
Sens. (number of patients sensitive to therapy) ([3]; PM Test score ≥95): 36
Res. (number of patients resistant to therapy) ([3]; PM Test score ≥100): 0
Sens. (number of patients sensitive to therapy) ([3]; PM Test score ≥100): 0
